This is an account of results in patent US11413290B2, “Amorphous solid dispersions of dasatinib and uses thereof” (NANOCOPOEIA, LLC, priority 2020, dated 2022).

The structures appear in SMILES notation.

The conditions of data set [1]: dasatinib in crystalline forms; cited from earlier work.
Data set [2] can be described thus: Amorphicity / crystallinity by XRD. It counts as physicochemical. The note with it: Comparative Example; promptly after spray drying and secondary drying. As for the experimental part: The percent of crystallinity was calculated as follows: % crystallinity=area of crystalline peaks/(area of crystalline peaks+amorphous peaks)
Amorphicity and glass transition temperature were assessed using the methodology described in Example 1.

Data set [3] can be described thus: Water content by coulometric Karl Fischer titration. The data set is classed as physicochemical. The note with it: Comparative Example; promptly after preparation.
A short description of data set [4]: Assay and total impurities by HPLC (Example 6). The following applies: Comparative Example; promptly after preparation. The data set is classed as physicochemical.
Protocol: Assay and total impurities of the ASDs were assessed using either an Agilent 1200 HPLC or a Waters Alliance e2695 HPLC.
L100-55 ASDs and in Table 37 for Dasatinib:METHOCEL E5 ASDs at t=0 and at each stability time point. These reported assay values are corrected for the measured water content of the sample.
A short description of data set [5]: Glass transition temperature by mDSC. The note with it: Comparative Example; promptly after preparation.

For `Cc1nc(Nc2ncc(C(=O)Nc3c(C)cccc3Cl)s2)cc(N2CCN(CCO)CC2)n1` [dasatinib, N-(2-chloro-6-methylphenyl)-2-[[6-[4-(2-hydroxyethyl)-1-piperazinyl]-2-methyl-4-pyrimidinyl]amino]-5-thiazolecarboxamide], the “Biopharmaceutical Classification System (BCS) class” value in data set [1] is “Class II”.

`Cc1nc(Nc2ncc(C(=O)Nc3c(C)cccc3Cl)s2)cc(N2CCN(CCO)CC2)n1` [spray-dried material of 100% dasatinib]: the XRD character result in data set [2] was “exhibited crystalline character”. In data set [3], this molecule had a Water content of 0.81%. Also, the assay value in data set [4] is 97.4%. Also, the “glass transition temperature (Tg), transition event” value in data set [5] was 125.61 °C.
